Data reported in patent publication US11623919B2, “Heterocyclic P2X7 antagonists” (AXXAM S.P.A., priority 2017, dated 2023).

Columns and labels:
P2X7 receptor [1] = target: T1, P2X7 receptor (Homo sapiens, UniProt Q99572); assay: YO-PRO-1 uptake assay; assay type: cell-based; design: expressed in transfected cells; conditions: HEK-293 cells stably transfected with P2X7 receptor; Bz-ATP EC80 (30 μM); Low Divalent Cation Assay Buffer
T1 sequence (Q99572 1-595): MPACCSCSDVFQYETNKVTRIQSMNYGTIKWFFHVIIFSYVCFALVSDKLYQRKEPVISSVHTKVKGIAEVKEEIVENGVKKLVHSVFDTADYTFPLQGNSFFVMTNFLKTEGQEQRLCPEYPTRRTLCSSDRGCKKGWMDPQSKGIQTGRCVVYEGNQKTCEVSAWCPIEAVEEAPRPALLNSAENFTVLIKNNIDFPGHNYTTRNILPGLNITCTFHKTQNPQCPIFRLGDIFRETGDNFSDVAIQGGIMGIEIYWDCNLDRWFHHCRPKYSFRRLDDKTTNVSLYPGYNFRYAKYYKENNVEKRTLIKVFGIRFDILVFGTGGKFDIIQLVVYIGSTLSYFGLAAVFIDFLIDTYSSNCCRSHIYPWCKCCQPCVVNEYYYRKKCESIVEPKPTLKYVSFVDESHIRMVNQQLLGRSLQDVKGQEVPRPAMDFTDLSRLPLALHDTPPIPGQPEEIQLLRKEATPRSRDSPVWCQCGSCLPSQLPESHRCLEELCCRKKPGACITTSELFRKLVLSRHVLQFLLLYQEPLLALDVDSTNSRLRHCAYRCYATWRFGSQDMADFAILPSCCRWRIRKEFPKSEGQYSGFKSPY
Text: YO-PRO®-1 is a fluorescent DNA-binding dye with a MW of 374 Da (Molecular Probes®, cat. Y3603). This method is based upon the presumed ability of YO-PRO®-1 to enter through the dilated or “large pore form” of P2X7 receptor and to bind to intracellular DNA whereupon it increases many fold its fluorescence intensity. The dye ha an absorption spectrum compatible with excitation at 488 nm by argon laser sources and its emission wavelength is in the range of 515-575 nm. The aim of this assay was to validate the interaction of antagonists with P2X7 receptor using an alternative readout to Ca2+-sensitive fluorescent dyes.
HEK-293 cells stably transfected with P2X7 receptor were seeded overnight un growth medium at 20,000 cell/well in 384-well plate. 24 hours later, the medium was removed, the cells were washed with Low Divalent Cation Assay Buffer (0.3 mM Ca^2+ and 0 mM Mg^2+) and then pre-loaded with 20 μL/w of 5 μM YO-PRO®-1 dye.
FLIPRTETRA fluorescence measurement immediately started. Then 10 μL/w of test compounds and reference antagonist A438079 at 3×-concentration were injected with the FLIPRTETRA and the kinetic response over a period of five minutes was monitored. A second injection of 10 μL/w of 3× Bz-ATP EC80 (30 μM) was performed with the FLIPRTETRA and the signal of the emitted fluorescence was recorded for additional 60 minutes. All the experiment was carried out with a Low Divalent Cation Assay Buffer (0.3 mM Ca^2+ and 0 mM Mg^2+).
The effect of the test compounds was measured as percent inhibition vs the reference antagonist and IC50 values were calculated accordingly.

P2X7 receptor [2] = target: T1, P2X7 receptor; assay: Automated patch-clamp (QPatch16X) P2X7 channel assay; assay type: cell-based; design: expressed in transfected cells; host or cells: HEK-293; conditions: HEK-293 cells expressing P2X7 channels; whole-cell, held at -80 mV; 100 microM BzATP; compound 1, 10, 100 and 1000 nM; read-out: Q-Patch (IC50)
Protocol: In order to directly monitor the block of P2X7 channel, an electrophysiological assay was developed and implemented on the QPatch16X automated electrophysiology instrument.
HEK-293 cells expressing the P2X7 channels were cultured in modified EMEM.
72 hours before experiment, 5 million cells were seeded onto T225 flasks. Just before the experiment cells were washed twice, detached from the flask with trypsin-EDTA, re-suspended in the suspension solution and placed on the QPatch 16x.
The compounds (20 mM in a 100% DMSO) stored at −20° C. were prepared the day of the experiment (a first dilution 1:20 in 100% DMSO to prepare a 1 mM stock solution, then a 1 microM solution in external solution+a serial dilution 1:10).
The standard whole-cell voltage clamp experiments were performed at room temperature. From these experiments the multihole technology was used and the data were sampled at 2 KHz.
The intracellular solution contained (mM) 135 CsF, 10 NaCl, 1 EGTA, 10 HEPES, (pH 7.2 with CsOH) whereas the extracellular contained (mM) 145 NaCl, 4 KCl, 0.5 MgCl2, 1 CaCl2, 10 HEPES, 10 Glc (pH 7.4 with NaOH).
After establishment of the seal and the passage in the whole cell configuration, the cells were held at −80 mV. The P2XR7 current was evoked by applying 100 microM of BzATP alone (4 times) and then in the presence increasing concentrations of the compound under investigation (1, 10, 100 and 1000 nM).
The pre-incubation periods 5 to 8 contain increasing concentrations of the compound of interest (1, 10, 100 and 1000 nM), as illustrated in FIGURE (application protocol).
The maximal inward current evoked by BzATP in absence or presence of increasing concentrations of the compounds under investigation was measured and normalized. The potential […] effect was measured as % of control and as IC50 determined fitting the dose-response curves data with the following equation: Y=100/(1+10^((Log IC50−X)*HillSlope))

SMILES	IC50 (P2X7 receptor [1]) [nM]	IC50 (P2X7 receptor [2]) [nM]
O=c1onc(Cc2c(F)cccc2Cl)n1CC1CCCCO1 (stereo not drawn) [Example 94, 3-[(2-chloro-6-fluorophenyl)methyl]-4-(oxan-2-ylmethyl)-4,5-dihydro-1,2,4-oxadiazol-5-one]	435	332
O=c1onc(Cc2c(F)cccc2Cl)n1CC1(F)CCCCC1 [Example 96, 3-[(2-chloro-6-fluorophenyl)methyl]-4-[(1-fluorocyclohexyl)methyl]-4,5-dihydro-1,2,4-oxadiazol-5-one]	523	245
O=c1onc(Cc2c(F)cccc2Cl)n1CC1CCCCC1(F)F (stereo not drawn) [Example 97, 3-[(2-chloro-6-fluorophenyl)methyl]-4-[(2,2-difluorocyclohexyl)methyl]-4,5-dihydro-1,2,4-oxadiazol-5-one]	193	100
O=c1onc(Cc2cccc(Cl)c2Cl)n1CC1CCCCC1 [Example 115, 4-(cyclohexylmethyl)-3-[(2,3-dichlorophenyl)methyl]-4,5-dihydro-1,2,4-oxadiazol-5-one]	399	72.7
O=c1onc(Cc2ccccc2C(F)(F)F)n1CC1CCCCC1 [Example 116, 4-(cyclohexylmethyl)-3-{[2-(trifluoromethyl)phenyl]methyl}-4,5-dihydro-1,2,4-oxadiazol-5-one]	284	466
O=c1onc(Cc2ccc(Cl)cc2Cl)n1CC1CCCCC1 [Example 118, 4-(cyclohexylmethyl)-3-[(2,4-dichlorophenyl)methyl]-4,5-dihydro-1,2,4-oxadiazol-5-one]	618	1090
O=c1onc(Cc2ccc(F)cc2F)n1CC1CCCCC1 [Example 119, 4-(cyclohexylmethyl)-3-[(2,4-difluorophenyl)methyl]-4,5-dihydro-1,2,4-oxadiazol-5-one]	547	268
O=c1onc(Cc2ccccc2F)n1CC1CCCCC1 [Example 120, 4-(cyclohexylmethyl)-3-[(2-fluorophenyl)methyl]-4,5-dihydro-1,2,4-oxadiazol-5-one]	590	162
O=c1onc(CC2CCCCC2)n1Cc1c(F)cccc1Cl [Example 130, 4-[(2-chloro-6-fluorophenyl)methyl]-3-(cyclohexylmethyl)-4,5-dihydro-1,2,4-oxadiazol-5-one]	233	94.8
O=c1snc(Cc2c(F)cccc2Cl)n1CC1CCCCC1 [Example 140, 3-[(2-chloro-6-fluorophenyl)methyl]-4-(cyclohexylmethyl)-4,5-dihydro-1,2,4-thiadiazol-5-one]	181	39.2
O=c1onc(Cc2c(F)cccc2Cl)n1CCC1CCCCC1 [Example 142, 3-(2-chloro-6-fluorobenzyl)-4-(2-cyclohexylethyl)-1,2,4-oxadiazol-5(4H)-one]	467	153
Cc1noc(C)c1Cc1noc(=O)n1CC1CCCCC1 [Example 210, 4-(cyclohexylmethyl)-3-[(dimethyl-1,2-oxazol-4-yl)methyl]-4,5-dihydro-1,2,4-oxadiazol-5-one]	184	149

These reach a lower IC50 (P2X7 receptor [1]). Values come first.

IC50 (P2X7 receptor [1]) [nM]	IC50 (P2X7 receptor [2]) [nM]	SMILES
142	124	CC1(C)CCCCC1Cn1c(Cc2c(F)cccc2Cl)noc1=O (stereo not drawn) [Example 99, 3-[(2-chloro-6-fluorophenyl)methyl]-4-[(2,2-dimethylcyclohexyl)methyl]-4,5-dihydro-1,2,4-oxadiazol-5-one]
129	165	O=c1onc(Cc2ccc(F)cc2Cl)n1CC1CCCCC1 [Example 114, 3-[(2-chloro-4-fluorophenyl)methyl]-4-(cyclohexylmethyl)-4,5-dihydro-1,2,4-oxadiazol-5-one]
143	94.9	O=c1onc(Cc2ccccc2Cl)n1CC1CCCCC1 [Example 117, 3-[(2-chlorophenyl)methyl]-4-(cyclohexylmethyl)-4,5-dihydro-1,2,4-oxadiazol-5-one]
32	3.36	O=c1onc(CC2CCC(F)(F)CC2)n1Cc1c(F)cccc1Cl [Example 132, 4-[(2-chloro-6-fluorophenyl)methyl]-3-[(4,4-difluorocyclohexyl)methyl]-4,5-dihydro-1,2,4-oxadiazol-5-one]
31	3.04	O=c1snc(Cc2c(F)cccc2Cl)n1CC1CCC(F)(F)CC1 [Example 141, 3-[(2-chloro-6-fluorophenyl)methyl]-4-[(4,4-difluorocyclohexyl)methyl]-4,5-dihydro-1,2,4-thiadiazol-5-one]
171	119	Cc1noc(C)c1Cc1noc(=O)n1CC1CCC(F)(F)CC1 [Example 211, 4-[(4,4-difluorocyclohexyl)methyl]-3-[(dimethyl-1,2-oxazol-4-yl)methyl]-4,5-dihydro-1,2,4-oxadiazol-5-one]
